# Measured values taken from patent US20250009676A1, “COMPOSITIONS AND METHODS FOR LEVODOPA DELIVERY” (PURDUE PHARMA L.P., priority 2021, published 2025).
# “Also recorded” adds a separate entry of the source.
# Legend:
# [1] = after intranasal L-DOPA administration, Nedorubov et al; cited from earlier work
# [2] = Brain levels of L-DOPA and dopamine after intranasal dosing; details: rat, 1.2 mg/kg, 2 hours post-dosing
# Text: All brain levels are reported after subtraction of basal levels.
# [3] = Plasma pharmacokinetics of L-DOPA and dopamine after intranasal dosing; details: rat, 1.2 mg/kg
compound,measurement,setting,value
"N[C@@H](Cc1ccc(O)c(O)c1)C(=O)O [crystal L-DOPA, levodopa]",Cmax for L-DOPA in rat brain tissue,[1],16.94±1.52
same,dopamine levels in the brain above basal levels (in words),[2],below the LOQ; also recorded: below the level of detection
same,"dopamine plasma concentration, single animals with a quantifiable value","[3]; GCPQ-L-DOPA: one rat, t=0.083 hours",25 to 29 ng/mL
same,dopamine plasma concentration,"[3]; limit of quantification 25 ng/ml, nearly all samples",below the limit of quantification
same,maximum plasma concentration of L-DOPA,[3]; plasma,53.5 ± 22.7 ng/mL
same,time of maximum L-DOPA plasma concentration (Tmax),[3]; plasma,15 min
